In ChEMBL document CHEMBL3046786, “Synthesis of piperazinyl benzothiazole/benzoxazole derivatives coupled with 1,3,4-oxadiazole-2-thiol: novel hybrid heterocycles as anticancer agents” (Med Chem Res, 2013):

Key:
Format in all cases: functional, cell-based
A549 = experiment: Anticancer activity against Homo sapiens (human) A549 cells assessed as inhibition of cell viability after 72 hr by MTT assay; conditions: A549, 72 h
HepG2 = experiment: Anticancer activity against Homo sapiens (human) HepG2 cells assessed as inhibition of cell viability after 72 hr by MTT assay; conditions: HepG2, 72 h
HeLa = experiment: Anticancer activity against Homo sapiens (human) HeLa cells assessed as inhibition of cell viability after 72 hr by MTT assay
A-431 = experiment: Anticancer activity against Homo sapiens (human) A431 cells assessed as inhibition of cell viability after 72 hr by MTT assay; conditions: A-431, 72 h
MCF7 = experiment: Anticancer activity against Homo sapiens (human) MCF7 cells assessed as inhibition of cell viability after 72 hr by MTT assay; conditions: MCF7, 72 h

IC50 (A549) | IC50 (HepG2) | IC50 (HeLa) | IC50 (A-431) | IC50 (MCF7) | SMILES
90.8 µM | 67.2 µM | 114 µM | 46.9 µM | 90.1 µM | O=[N+]([O-])c1ccc(-c2nnc(SCCCN3CCN(c4nc5ccccc5o4)CC3)o2)cc1
102 µM | 88.9 µM | 63.9 µM | 36.9 µM | 52.7 µM | O=C(NCc1nnc(SCCCN2CCN(c3nc4ccccc4o3)CC2)o1)c1ccccc1
71.7 µM | 234 µM | 134 µM | 67 µM | 84.1 µM | Fc1ccc(-c2nnc(SCCCN3CCN(c4nc5ccccc5s4)CC3)o2)cc1
110 µM | 87.7 µM | 177 µM | 69.2 µM | 116 µM | Clc1ccc(-c2nnc(SCCCN3CCN(c4nc5ccccc5s4)CC3)o2)cc1
106 µM | 154 µM | 133 µM | 100 µM | 60.4 µM | Cc1ccc(-c2nnc(SCCCN3CCN(c4nc5ccccc5o4)CC3)o2)cc1
88.7 µM | 325 µM | 78.1 µM | 55.9 µM | 39 µM | O=C(NCc1nnc(SCCCN2CCN(c3nc4ccccc4s3)CC2)o1)c1ccccc1
90.3 µM | 134 µM | 165 µM | 56.2 µM | 171 µM | COc1ccc(-c2nnc(SCCCN3CCN(c4nc5ccccc5s4)CC3)o2)cc1
62.1 µM | 364 µM | 139 µM | 54.7 µM | 81.9 µM | Oc1ccc(-c2nnc(SCCCN3CCN(c4nc5ccccc5s4)CC3)o2)cc1
123 µM | 67.5 µM | 187 µM | 57.8 µM | 115 µM | Brc1ccc(-c2nnc(SCCCN3CCN(c4nc5ccccc5o4)CC3)o2)cc1
257 µM | 217 µM | 229 µM | 93.4 µM | 76.9 µM | c1ccc(-c2nnc(SCCCN3CCN(c4nc5ccccc5s4)CC3)o2)cc1
127 µM | 121 µM | 101 µM | 89.6 µM | 99.7 µM | Clc1ccc(-c2nnc(SCCCN3CCN(c4nc5ccccc5o4)CC3)o2)cc1

Second part, the compound before the results:

SMILES | IC50 (A549) | IC50 (HepG2) | IC50 (HeLa) | IC50 (A-431) | IC50 (MCF7)
COc1cc(/C=C/C(=O)CC(=O)/C=C/c2ccc(O)c(OC)c2)ccc1O [CURCUMIN] | 22 µM | 16 µM | – | 22 µM | 26 µM
c1ccc(-c2nnc(SCCCN3CCN(c4nc5ccccc5o4)CC3)o2)cc1 | 108 µM | 102 µM | 67 µM | 57.6 µM | 117 µM
COc1ccc(-c2nnc(SCCCN3CCN(c4nc5ccccc5o4)CC3)o2)cc1 | 93.5 µM | 66.1 µM | 210 µM | 52.7 µM | 52.8 µM
Brc1ccc(-c2nnc(SCCCN3CCN(c4nc5ccccc5s4)CC3)o2)cc1 | 62.5 µM | 103 µM | 243 µM | 51.6 µM | 96.3 µM
Fc1ccc(-c2nnc(SCCCN3CCN(c4nc5ccccc5o4)CC3)o2)cc1 | 75.7 µM | 83.8 µM | 196 µM | 136 µM | 52.3 µM
O=[N+]([O-])c1ccc(-c2nnc(SCCCN3CCN(c4nc5ccccc5s4)CC3)o2)cc1 | 96.6 µM | 93.3 µM | 97.8 µM | 46.5 µM | 118 µM
CC(C)(C)Oc1ccc(-c2nnc(SCCCN3CCN(c4nc5ccccc5o4)CC3)o2)cc1 | 263 µM | 121 µM | 269 µM | 65.8 µM | 94.9 µM
CC(C)(C)Oc1ccc(-c2nnc(SCCCN3CCN(c4nc5ccccc5s4)CC3)o2)cc1 | 71.6 µM | 202 µM | 217 µM | 67 µM | 89.3 µM
Cc1ccc(-c2nnc(SCCCN3CCN(c4nc5ccccc5s4)CC3)o2)cc1 | 53.9 µM | 96.7 µM | 179 µM | 61.6 µM | 107 µM
Oc1ccc(-c2nnc(SCCCN3CCN(c4nc5ccccc5o4)CC3)o2)cc1 | 181 µM | 502 µM | 99.5 µM | 116 µM | 260 µM
